From patent US20220323626A1, “Compositions, Kits, Methods and Uses for Preventing Microbial Growth” (Collidion, Inc., priority 2019, published 2022)

System: Staphylococcus aureus (ATCC 29213)
Test: Microbiostatic assay: antimicrobial effectiveness test according to USP-51, viable colony counts over 28 days
Assay type: cell-based
Conditions: inferred from the initial assays (7-log reduction at 0.5 ppm and above)
Protocol: To prepare stock cultures of pathogenic bacteria, 10 mL nutrient broth was inoculated using a stock culture of Staphylococcus aureus (ATCC 29213) and incubated on an orbital shaker for 24±2 hours at approximately 150 rpm at 36±1° C. This culture was used to inoculate Tryptic Soy Agar (TSA) plates. Each plate was inoculated with the culture. Each plate was incubated for up to 48 hours at 30° C. to 35° C. Following incubation, suspensions were prepared by adding growth from TSA plates into a tube containing sterile water. Each tube was then vortexed and an aliquot was serially diluted and plated onto TSA plate for further numeration. The final numeration count uses aliquot volume, count obtained on TSA plate and the total original volume of culture. […]
Each composition was tested over a seven log dilution series of pathogen bacteria assays by preparing samples containing 200 μL of a pathogenic bacteria suspension, 20 μL of an organic load, and 20,000 μL of a composition disclosed herein. […] The presence of viable bacteria was then measured by counting the number of colonies observed on the agar medium for each assay sample. Log reduction is determined by taking the log10 of the number calculated by taking the number of viable pathogenic bacteria colonies present in the assay sample without serum divided by the number of viable pathogenic bacteria colonies present in the assay sample with serum. […]

## hypochlorous acid
  minimum microbiocidal concentration of hypochlorous acid or free available chlorine in the disclosed compositions: approximately 0.5 ppm
